{"source": "Sander's compilation of Henry's law constants (doi:10.1016/j.ijggc.2017.01.001)"}
{"experiment": "Henry solubility constant Hcp at 313 K (mol/(m3 Pa))", "conditions": "reference: Du et al. (2017)"}
{"smiles": "Cc1nccn1C", "note": "[1,2-dimethylimidazole]", "Henry solubility constant Hcp at 313 K": 43}
{"smiles": "OCCN1CCCCC1", "note": "[1-(2-hydroxyethyl)piperidine]", "Henry solubility constant Hcp at 313 K": 51}
{"smiles": "Cn1ccnc1", "note": "[1-methyl-1H-imidazole]", "Henry solubility constant Hcp at 313 K": 69}
{"smiles": "CCN(CC)CCO", "note": "[2-(diethylamino)ethanol]", "Henry solubility constant Hcp at 313 K": 5.9}
{"smiles": "CC(C)NCCO", "note": "[2-(isopropylamino)ethanol]", "Henry solubility constant Hcp at 313 K": 110}
{"smiles": "CCC(N)(CO)CO", "note": "[2-amino-2-ethyl-1,3-propanediol]", "Henry solubility constant Hcp at 313 K": 710}
{"smiles": "CC(C)(N)CO", "note": "[2-amino-2-methyl-1-propanol]", "Henry solubility constant Hcp at 313 K": 210}
{"smiles": "CCc1ncc(C)[nH]1", "note": "[2-ethyl-4-methylimidazole]", "Henry solubility constant Hcp at 313 K": 280}
{"smiles": "CCc1ncc[nH]1", "note": "[2-ethylimidazole]", "Henry solubility constant Hcp at 313 K": 760}
{"smiles": "Cc1ncc[nH]1", "note": "[2-methyl-1H-imidazole]", "Henry solubility constant Hcp at 313 K": 810}
{"smiles": "OCCC1CCCCN1", "note": "(stereo not given) [2-piperidineethanol]", "Henry solubility constant Hcp at 313 K": 390}
{"smiles": "NCc1cccnc1", "note": "[3-(aminomethyl)pyridine]", "Henry solubility constant Hcp at 313 K": 430}
{"smiles": "CCN(CC)CC(O)CO", "note": "(stereo not given) [3-(diethylamino)-1,2-propanediol]", "Henry solubility constant Hcp at 313 K": 540}
{"smiles": "CN(C)CC(O)CO", "note": "(stereo not given) [3-(dimethylamino)-1,2-propanediol]", "Henry solubility constant Hcp at 313 K": 670}
{"smiles": "COCCCN", "note": "[3-methoxy-1-propanamine]", "Henry solubility constant Hcp at 313 K": 21}
{"smiles": "CN1CCC(O)CC1", "note": "[4-hydroxy-N-methylpiperidine]", "Henry solubility constant Hcp at 313 K": 1300}
{"smiles": "CN(CCO)CCO", "note": "[N-methyldiethanolamine]", "Henry solubility constant Hcp at 313 K": 3300}
{"smiles": "COCCNCCOC", "note": "[bis(2-methoxyethyl)amine]", "Henry solubility constant Hcp at 313 K": 110}
{"smiles": "CN(C)CCOCCO", "note": "[dimethylaminoethoxyethanol]", "Henry solubility constant Hcp at 313 K": 830}
{"smiles": "CN1C2CCC1CC(O)C2", "note": "(stereo not given) [tropine]", "Henry solubility constant Hcp at 313 K": 1300}
